{"source": "patent US20250195508A1", "about": "“COMPOUNDS AND COMPOSITIONS FOR ANITMALARIAL THERAPEUTIC AND PROPHYLACTIC USE” (UNIVERSITY OF CENTRAL FLORIDA RESEARCH FOUNDATION, INC., priority 2022, published 2025)", "key": {"[1]": {"system": "P. falciparum Dd2", "assay": "72 h SYBR Green I assay (Dd2 Proliferation Assay)", "type": "cell-based", "conditions": "Plasmodium falciparum, DD2; SYBR Green I assay; Table 4; read-out: PfDd2 EC50 (nM) ± SD", "experimental": "Several analogs were synthesized based on the structure of TL5-135 for further study. […] For the data in Table 1, compounds were subjected to in vitro biochemical kinase assays done using recombinant human ephrin type-A receptor 2 (EPHA2) (expressed in insect cells) in a Z′-LYTE® FRET-based kinase assay. P. falciparum Dd2 EC50 was determined using the standard 72 hour SYBR Green I assay (Dd2 Proliferation Assay) as known in the art. […] The structures of compoundsTL5-134, TL5-139, and TL5-145 are shown below.\nIn vitro biochemical kinase assays were done using recombinant human EPHA2 (expressed in insect cells) in a Z′-LYTE® FRET-based kinase assay. P. falciparum Dd2 EC50 was determined using the standard 72 h SYBR Green I assay.\nAsynchronous blood stage P. falciparum Dd2 cultures were plated at 1% parasitemia and 1% hematocrit in a 96-well plate and incubated with serial dilutions of compound for 72 hours at 37° C. in 5% CO2. DMSO concentrations were kept at a sub-lethal percentage (<0.2%). Five micromolar chloroquine was used as a negative parasite growth control. Plates were then frozen at −80° C. and thawed, and 100 μL SYBR Green I-containing lysis buffer (20 mM Tris-HCl, 5 mM EDTA, 0.8% Triton X-100, 0.08% saponin, and 0.0001% SYBR Green I) was added to the wells. After incubation for 45 minutes at room temperature protected from light, fluorescence emission was read with a multimode microplate reader, at 485 nm excitation and 530 nm emission. Results were normalized using untreated and chloroquine-treated controls, and EC50 was determined with CDD Vault.\n(§1) To establish the utility of kinase inhibitor compounds synthesized in the Gray laboratory as a source of novel antimalarial activities, the libraries (containing 1,100 compounds) were screened using the well-established SYBR Green I-based fluorescence assay as known in the art. This screen yielded 34 compounds with EC50<500 nM in the CQ^R Dd2 strain. These hits were subjected to counter-screening against human HepG2 cells using CellTiter 96® AQueous (Promega™) MTS-based cell proliferation assay to identify asexual and liver stage antiplasmodial hits.\n(§2) P. falciparum Dd2 EC50 was determined using SYBR Green I assay. For the selectivity index ([…]) cytotoxicity was determined using CellTiter 96® AQueous MTS. The liver stage assay was performed using P. berghei luciferase expressing parasites. All assays were performed with technical quadruplicates and 3 biological replicates. Assays have a Z′ factor >0.7."}, "[2]": {"system": "P. berghei ANKA", "assay": "Treatment of established P. berghei ANKA luciferase infection in mice, IVIS imaging", "type": "in vivo", "conditions": "50 mg/kg p.o. once daily for 4 days from 72 hours post-infection; imaging day 7", "experimental": "Mice infected with P. berghei ANKA (10^3 iRBC) expressing luciferase were treated with 50 mg/kg TL5-135 or chloroquine orally once daily 72 hours post-infection for 4 days. Imaging was done 7 days after infection following a 150 mg/kg D-luciferin injection with an IVIS."}, "[3]": {"system": "HepG2 human liver cell", "assay": "CellTiter 96 AQueous MTS cytotoxicity counter-screen (selectivity index)", "type": "cell-based", "experimental": "as §1, §2"}}, "note": "“Also recorded” adds a separate entry of the source."}
{"molecule": "CCN1CCN(Cc2ccc(NC(=O)c3cc(Cl)cc(NC(=O)c4cncc(-c5cccs5)c4)c3)cc2C(F)(F)F)CC1", "note": "[TL5-135]", "values": [{"measurement": "EC50", "setting": "[1]", "result": "80 ± 8", "unit": "nM"}, {"measurement": "Effect on established P. berghei infection", "setting": "[2]", "result": "eliminates established P. berghei ANKA infection; also recorded: eliminate established Plasmodium. berghei infections in mice"}, {"measurement": "Selectivity Index (SI)", "setting": "[3]", "result": 116}]}
